Assay results published in US6080772A, “Thiazole compounds and methods of modulating signal transduction” (Sugen, Inc., priority 1997, dated 2000).
Where “and” joins values, the source holds several entries; their conditions need not be identical. Equal values may be shown once. Read-outs that look alike come from different tables or passages of the source.

Legend:
[1] = test system: primary adipocytes; experiment: Primary adipocyte glucose uptake assay (14C glucose); details: test compound 50 mM without insulin, compared to samples containing only insulin (final concentration=100 μm)
[2] = test system: insulin receptor (IR); experiment: Phosphotyrosine enzyme linked immunosorbent assay: pTyr on insulin receptor in NIH3T3 cells over-expressing human IR (H25 cells); details: for EC50: read-out: ACTIVITY EC50; for ACTIVITY (compared to control) / CONC.: Table I; for CONC.: concentration of the compound which produces the percentage increase in phosphotyrosine over the vanadate control, 90 min incubation, no insulin

Row | EC50 ([2]; Table III, […]) | Compound | response in the primary adipocyte glucose uptake assay compared with the insulin control [1] | also measured
1 |  | 2-[(5-nitrothiazol-2-yl)mercapto]-3-cyano-5-acetoxy-6-dimethoxymethyl-pyridine [Compound 97] | did not give a response greater than or equal to the insulin control | level of pTyr on insulin receptor over time (FIG. 1) ([2]; kinetic experiments, range of concentrations, period of 90 minutes): progressively raised the level of pTyr on insulin receptor; EC50 [2]: 34 µM
2 |  | O=[N+]([O-])c1cnc(Sc2n[nH]c(-c3ccccc3)n2)s1 [Compound 1, 3-[(5-nitrothiazol-2-yl)mercapto]-5-phenyl-1,2,4-triazole] | did not give a response greater than or equal to the insulin control | ACTIVITY (compared to control) ([2]; […]): 30%; CONC. [2]: 53 µM; EC50 ([2]; Table II, […], no lot stated): 17 µM
3 |  | CC(C)(C)c1nc(Sc2ncc([N+](=O)[O-])s2)n[nH]1 [Compound 2, 2-[(5-nitro-thiazol-2-yl)mercapto]-5-t-butyl-1,2,4-triazole] | did not give a response greater than or equal to the insulin control | CONC. [2]: 4.1 µM; EC50 ([2]; Table II, […], no lot stated): 16 to 20 µM
4 |  | O=[N+]([O-])c1cnc(Sc2n[nH]c(-c3cccs3)n2)s1 [Compound 3, 3-[(5-nitrothiazol-2-yl)mercapto]-5-(thien-2-yl)-1,2,4-triazole] | did not give a response greater than or equal to the insulin control | ACTIVITY (compared to control) ([2]; […]): 50%; CONC. [2]: 77 µM; EC50 ([2]; Table II, […], no lot stated): 22 to 32 µM
5 |  | O=[N+]([O-])c1cnc(Sc2nc(-c3ccc(Cl)cc3)n[nH]2)s1 [Compound 4, 3-(4-chlorophenyl)-5-[(5-nitrothiazol-2-yl)mercapto]-1,2,4-triazole] | did not give a response greater than or equal to the insulin control | ACTIVITY (compared to control) ([2]; […]): 30%; CONC. [2]: 100 µM; EC50 ([2]; Table II, […], no lot stated): 15 to 49 µM
6 |  | O=[N+]([O-])c1cnc(Sc2nnc(O)n2-c2ccccc2)s1 [Compound 5, 3-hydroxy-5-[(5-nitrothiazol-2-yl)mercapto]-4-phenyl-1,2,4-triazole] | did not give a response greater than or equal to the insulin control | ACTIVITY (compared to control) ([2]; […]): 30%; CONC. [2]: 13 µM; EC50 ([2]; Table II, […], no lot stated): 13 to 20 µM
7 |  | O=[N+]([O-])c1cnc(Sc2nnc(O)n2C2CCCCC2)s1 [Compound 6, 4-Cyclohexyl-3-hydroxy-5-[(5-nitrothiazol-2-yl)mercapto]-1,2,4-triazole] | did not give a response greater than or equal to the insulin control | ACTIVITY (compared to control) ([2]; […]): 30%; CONC. [2]: 100 µM; increase (PTYR) ([2]; Table II, at 100 μM): 50%
8 |  | O=[N+]([O-])c1cnc(Sc2nnc(O)n2Cc2ccccc2)s1 [Compound 7] | did not give a response greater than or equal to the insulin control | CONC. [2]: 200 µM and 100 µM; EC50 ([2]; Table II, […], no lot stated): 13 µM
9 |  | O=[N+]([O-])c1cnc(Sc2nnc(O)n2-c2ccccc2C(F)(F)F)s1 [Compound 8, 3-hydroxy-5-[(5-nitrothiazol-2-yl)mercapto]-4-[2-(trifluoromethyl)phenyl]-1,2,4-triazole] | did not give a response greater than or equal to the insulin control | ACTIVITY (compared to control) ([2]; […]): 30%; CONC. [2]: 24 µM
10 |  | CCn1nc(C)cc1-c1nnc(Sc2ncc([N+](=O)[O-])s2)n1CCCOC [Compound 9, 3-(1-ethyl-3-methylpyrazol-5-yl)-4-(3-methoxy-n-propyl)-5-[5-(nitrothiazol-2-yl)mercapto]-1,2,4-triazole] | did not give a response greater than or equal to the insulin control | ACTIVITY (compared to control) ([2]; […]): 50%; CONC. [2]: 3.9 µM; EC50 ([2]; Table II, LOT 2): 6 µM; EC50 ([2]; Table II, LOT3): 16 µM
11 | 75 µM | O=[N+]([O-])c1cnc(Sc2nnc(SCc3cccc(C(F)(F)F)c3)s2)s1 [Compound 63, 2-[(5-Nitrothiazol-2-yl)mercapto]-5-[3-(trifluoromethyl)benzylmercapto]-1,3,4-thiadiazole] |  | 
12 | > 25 µM | O=C(Sc1nnc(Sc2ncc([N+](=O)[O-])s2)s1)c1ccccc1 [Compound 65, 2-Benzoylmercapto-5-[(5-nitrothiazol-2-yl)mercapto]-1,3,4-thiadiazole] |  | 
13 | 3 µM | O=[N+]([O-])c1cnc(Sc2nccc(-c3ccc(-n4cnc(Cl)c4Cl)cc3)n2)s1 [Compound 67, 4-[4-(4,5-Dichloroimidazol-1-yl)phenyl]-2-[(5-nitrothiazol-2-yl)mercapto]pyrimidine] |  | 
14 | > 100 µM | O=C1CCCc2nc(Sc3ncc([N+](=O)[O-])s3)ncc21 [Compound 68, 2-[(5-Nitrothiazol-2-yl)mercapto]cyclohexylpyrimid-5-one] |  | 
15 | > 100 µM | Cc1ccc(Nc2nnc(Sc3ncc([N+](=O)[O-])s3)s2)cc1 [Compound 69, 2-(4-Methylphenylamino)-5-[(5-nitrothiazol-2-yl)mercapto]-1,3,4-thiadiazole] |  | 
16 | > 100 µM | Cc1cccc(C)c1NC1=CN=C(Sc2ncc([N+](=O)[O-])s2)SN1 [Compound 70, 3-(2,6-dimethylphenylamino)-6-[(5-nitrothiazol-2-yl)mercapto]-1,2,5-thiadiazine] |  | 
17 | 24 µM | Cc1ccc(Nc2nnc(Sc3ncc([N+](=O)[O-])s3)s2)c(C)c1 [Compound 71, 2-(2,4-Dimethylphenylamino)-5-[(5-nitrothiazol-2-yl)mercapto]-1,3,4-thiadiazole] |  | 

Row | EC50 ([2]; Table III, […]) | Compound | response in the primary adipocyte glucose uptake assay compared with the insulin control [1] | also measured
18 | 20 µM | Cc1cc(C)c(Nc2nnc(Sc3ncc([N+](=O)[O-])s3)s2)c(C)c1 [Compound 72, 2-[(5-Nitrothiazol-2-yl)mercapto]-5-(2,4,6-trimethylphenylamino)-1,3,4-thiadiazole] |  | 
19 | 10 µM | O=[N+]([O-])c1cnc(Sc2nnc(Nc3ccccc3)s2)s1 [Compound 73, 2-[(5-Nitrothiazol-2-yl)mercapto]-5-phenylamino-1,3,4-thiadiazole] |  | 
20 | > 100 µM | Cc1cc(C)c(Nc2nnc(Sc3ncc([N+](=O)[O-])s3)s2)cc1C [Compound 74, 2-[(5-Nitrothiazol-2-yl)mercapto]-5(2,4,5-trimethylphenylamino)-1,3,4-thiadiazole] |  | 
21 | > 100 µM | O=[N+]([O-])c1cnc(Sc2nnc(NC3CCCCC3)s2)s1 [Compound 75] |  | increase in PTYR ([2]; Table III, 100, 50 and 25 μM): 47%
22 | 63.8 µM | COc1ccccc1Nc1nnc(Sc2ncc([N+](=O)[O-])s2)s1 [Compound 76, 2-(2-Methoxyphenylamino)-5-[(5-nitrothiazol-2-yl)mercapto]-1,3,4-thiadiazol] |  | 
23 | 5 µM | Cc1ccc(Cl)cc1Nc1nnc(Sc2ncc([N+](=O)[O-])s2)s1 [Compound 77, 2-(5-Chloro-2-methylphenylamino)-5-[(5-nitrothiazol-2-yl)mercapto]-1,3,4-thiadiazole] |  | 
24 |  | O=[N+]([O-])c1ccc(-c2nnc(Sc3ncc([N+](=O)[O-])s3)[nH]2)o1 [Compound 78, 2-(2-Nitrofuran-5-yl)-5-[(5-nitrothiazol-2-yl)mercapto]-1,2,4-triazole] |  | EC50 [2]: 36 µM
25 | 7.8 µM | O=[N+]([O-])c1cnc(Sc2nnnn2Cc2ccccc2)s1 [Compound 80, 1-Benzyl-5-[(5-nitrothiazol-2-yl)mercapto]tetrazole] |  | 
26 | 34 µM | O=[N+]([O-])c1cnc(Sc2nnc(Nc3ccccc3Cl)s2)s1 [Compound 81, 2-(2-Chlorophenylamino)-5-[(5-nitrothiazol-2-yl)mercapto]-1,3,4-thiadiazole] |  | 
27 |  | O=[N+]([O-])c1cnc(Sc2ncc[nH]2)s1 [Compound 87, 2-[(5-Nitrothiazol-2-yl)mercapto]imidazole] | did not give a response greater than or equal to the insulin control | 
28 |  | O=[N+]([O-])c1cnc(Sc2nnnn2-c2cccc(O)c2)s1 [Compound 88, 1-(3-Hydroxyphenyl)-5-[(5-nitrothiazol-2-yl)mercapto]tetrazole] | did not give a response greater than or equal to the insulin control | 
29 |  | CCCCCC(=O)Nc1ccc(-n2nnnc2Sc2ncc([N+](=O)[O-])s2)cc1 [Compound 89, 1-[4-(n-Hexanoylamino)phenyl]-5-[(5-nitrothiazol-2-yl)mercapto]tetrazole] | did not give a response greater than or equal to the insulin control | 
30 |  | O=[N+]([O-])c1cnc(Sc2nc3cc4c(cc3[nH]2)OCCO4)s1 [Compound 90, 7-[(5-Nitrothiazol-2-yl)mercapto]-benzimidazo[5,6-b]1,4-dioxane] | did not give a response greater than or equal to the insulin control | 
31 |  | O=[N+]([O-])c1cnc(Sc2nnnn2-c2ccccc2)s1 [Compound 91, 5-[(5-Nitrothiazol-2-yl)mercapto]-1-phenyltetrazole] | did not give a response greater than or equal to the insulin control | 
32 |  | C#CCSc1nnc(Sc2ncc([N+](=O)[O-])s2)s1 [Compound 92, 2-[(5-Nitrothiazol-2-yl)mercapto]-5-propargylmercapto-1,3,4-thiadiazole] | did not give a response greater than or equal to the insulin control | 
33 |  | CC(C)n1c(Sc2ncc([N+](=O)[O-])s2)nc2cc(Cl)ccc21 [Compound 96(a), 5-Chloro-1-isopropyl-2-[(5-nitrothiazol-2-l)mercapto]benzimidazole] | did not give a response greater than or equal to the insulin control | 
34 |  | Cc1ccsc1/C=C/c1ccnc(Sc2ncc([N+](=O)[O-])s2)n1 [Compound 98] | did not give a response greater than or equal to the insulin control | 
